Two compounds from US20240041796A1, “ANTI-INFLAMMATORY COMPOSITION COMPRISING N-BENZYL-N-METHYLDECAN-1-AMINE OR A DERIVATIVE THEREOF AS AN ACTIVE INGREDIENT” (PUSAN NATIONAL UNIVERSITY INDUSTRY-UNIVERSITY COOPERATION …, priority 2022, published 2024) can be followed below.

In data set [1] the test system is human THP-1 monocytic cell line. Put plainly: LPS-induced inflammation-related signal transduction in THP-1 cells, immunoblotting. Conditions: THP-1 cultured 3 hours with compound, then LPS 1 μg/ml 1 hour; FIG. 2A-B. The class given is cell-based. As to the method: Each of BMDA (FMJ-G0) or DMMA (FMJ-G4) was added to a culture medium at concentrations of […], and 1 μM in a 6-well plate. The human THP-1 monocytic cell line (5×10^5 cells/well) was cultured therein for 3 hours. Each well was treated with lipopolysaccharide at a concentration of 1 μg/ml. After 1 hour, centrifugation was performed to obtain a supernatant which was used in an ELISA for inflammatory cytokine evaluation. Cell lysate was added to the collected THP-1 cells for immunoblotting.

Data set [2] deals with NF-KB P65 protein. Put plainly: NF-KB P65 distribution in cytoplasm and nucleus of LPS-treated THP-1 cells, immunoblotting. The format is cell-based, human. Conditions: FIG. 2D. From the text:
Moreover, the mononuclear THP-1 cell line treated with lipopolysaccharide (LPS) and BMDA/DMMA under the same conditions was partitioned into cytoplasmic and nuclear portions. Distribution of NF-KB P65 protein in the cytoplasm and nucleus was examined based on immunoblotting.

The subject of data set [3] is male SD rats. Briefly: DNBS-induced colitis model, enema administration. Conditions: for inflammatory response caused by DNBS / length of the large intestine (colon) / ulcer scab: 500 μL of 200 μg/mL through the anus for 5 days; for inflammatory response caused by DNBS: FIG. 3A-B; for production amount of CNIC-3 chemokine: ELISA of colon supernatant, FIG. 3E; for body weight lost due to the DNBS treatment: FIG. 3C; for length of the large intestine (colon) / ulcer scab: vs DNBS+PBS group; for macrophage peroxidase (MPO) activity in colon: vs DNBS+PBS-treated rat, FIG. 3D. The format is in vivo, rat. Here is the method: For experimental colitis, male SD rats (250 to 260 g) were fasted one day before developing colitis. A water bottle was prepared so that only water could be consumed by the rats. Then, after anesthesia of the rats, a rubber cannula is inserted into the anus, and a solution in which 48.0 mg DNBS was dissolved in 0.4 mL of 50% alcohol was injected thereto through the cannula. This process was repeated for 3 days.
From the 4th day since the DNBS was inserted, anesthesia of the rats was carried out, and then BMDA (FMJ-G0) and a derivative thereof (DMMA, FMJ-G4) were diluted with PBS, and then 500 μL of the diluted substance was injected at a concentration of 200 μg/mL thereto through the anus. This process was repeated for 5 days. In a control group, DMSO was diluted in PBS at the same concentration and then was injected in the same way for 5 days. Thereafter, on day 6, the rats were suffocated, and the large intestine was removed therefrom to evaluate a level of colitis according to a known method.
Moreover, a portion of the large intestine was removed, placed in a cell lysis buffer (20 mM Tris-HCl [pH 7.5], 150 mM NaCl, 1 mM EDTA, 1% Triton X-100, 0.5% SDS), and subjected to ultrasonic treatment. Centrifugation was carried out to collect only the supernatant. We quantified the protein, and performed immunoblotting thereon.
Further, a portion of the supernatant obtained after the centrifugation as prepared for immunoblotting was used to measure the amount of the chemokine CINC-3 (Cytokine-induced neutrophil chemoattractant) based on ELISA. Moreover, in order to measure the level of activity of macrophages infiltrated into the distal colon, a titer of MPO (Myeloperoxidase) was measured. The distal colon was pulverized in a supersonic pulverizing device, was centrifuged to obtain the supernatant. Then, hydrogen peroxide was added to the supernatant for decomposition. Change in absorbance was measured at 460 nm for 1 minute.

Data set [4] has as its system DBA/J1 male mice. Put plainly: Rheumatoid arthritis model induced by type 2 bovine collagen, oral administration. Conditions: for inflammation and synovitis of joint tissues: H&E stained joint sections, FIG. 5A-B; for expression of HO-1 in the joints / expression of Nrf2 in the joints: immunoblotting, FIG. 6B; for length of the spleen / weight of the spleen / swelling of the feet / weight loss caused by rheumatism induced by collagen: oral 20 mg/body weight Kg for 21 days; for length of the spleen / weight of the spleen: vs control, FIG. 4C-D; for swelling of the feet: vs soybean oil control, FIG. 4A-B; for weight loss caused by rheumatism induced by collagen: FIG. 4B. The format is in vivo, mouse. As to the method:
Rheumatoid arthritis was induced in 7-week-old DBA/J1 male mice. We thoroughly mixed the type 2 collagen at a concentration of 2 mg/mL with CFA (Complete Freund's Adjuvant) in the mixing ratio 1:1. We injected 0.1 mL (100 μg) of the mixture intradermally to a position away 2 cm from a base of the tail. After 2 weeks, we mixed the type 2 collagen with IFA instead of CFA in the mixing ratio 1:1. We administered the mixture subcutaneously to the base of the tail in the same amount and volume as those in the first injection. After 3 days, we grouped the mice into 4 groups and performed second administration thereto.
(§1) In one example, BMDA (FMJ-G0) and a derivative thereof (DMMA, FMJ-G4) at a concentration of 2.5 mg/mL were orally administered to male mice in a volume of 200 μL (20 mg/body weight Kg) for 21 days. In a control group, soybean oil was orally administered thereto.
(§2) During the experiment, the insteps of the forelimbs and hindlimbs were measured with a caliper three times a week, and the mice were suffocated, and joint areas were prepared for immunohistochemical staining and immunoblotting. Moreover, the spleen was removed therefrom and a size thereof was measured. Further, blood was drawn through the hepatic portal vein to prepare serum. A specific method was as follows. • 1) Paraffin sections were prepared as the joints including the ankles of the forelimbs. At this time, decalcification is performed first, followed by sectioning the same at a thickness of 4 μm, and H&E staining. • 2) The cell lysis solution was added thereto, and then we crushed the tissue with a sonicator, which was prepared for immunoblotting. • 3) Trisol solution was added to the joint tissue, the tissue was pulverized in a sonicator, and centrifuged, and the Trisol solution was used to precipitate proteins and DNA for entire RNA separation, and the entire RNA was collected from the supernatant obtained via the centrifugation. c-DNA was synthesized using oligo-dT primer and reverse transcriptase, and then, quantitative qRT-PCR and immunoblotting were performed thereon.

Data set [5] deals with DBA/J1 male mice. Put plainly: Serum AST and ALT activity (hepatotoxicity indicators) in the collagen-induced rheumatoid arthritis model. The class given is in vivo, mouse. The following applies: oral administration for 3 weeks; FIG. 7. As to the method:
as §1, §2

With `CCCCCCCCCCN(C)Cc1ccc(OC)cc1` [DMMA, Decyl-(4-methoxy-benzyl)-methyl-amine], in data set [1], the “activity of JNK activated by LPS” value is “suppressed”, the “activity of p38 MAPK activated by LPS” value is recorded as “suppressed” and the “inflammation-related signaling pathway leading to p38 MAPK-MK2” value was “inhibited”. Further, in data set [2], the “NF-KB expression and migration in the nucleus” value is “inhibited”; the “activity of the transcription factor NF-KB” value is recorded as “inhibited”. In data set [3], the “inflammatory response caused by DNBS” value is on record as “significantly reduced”, the “production amount of CNIC-3 chemokine” value was “low”, the “body weight lost due to the DNBS treatment” value is listed as “did not restore” and the “length of the large intestine (colon)” value is “larger than that of the DNBS+PBS-treated rat group”. In addition, in data set [3], the ulcer scab result is reported as “reduced” and the “macrophage peroxidase (MPO) activity in colon” value is given as “much lower”. For the same compound, in data set [4], the “inflammation and synovitis of joint tissues” value was “significantly reduced”; the “expression of HO-1 in the joints” value is on record as “increased”; the “expression of Nrf2 in the joints” value is listed as “increased”; the “length of the spleen” value is listed as “reduced”. Moreover, in data set [4], the “weight of the spleen” value was “reduced”, the “swelling of the feet” value was “much smaller” and the “weight loss caused by rheumatism induced by collagen” value is reported as “did not restore”. In data set [5], the “activity of ALT enzyme in serum” value is “did not increase” and the “activity of AST enzyme in serum” value was “did not increase”.

With `CCCCCCCCCCN(C)Cc1ccccc1` [BMDA, N-benzyl-N-methyldecan-1-amine], in data set [1], the “activity of JNK activated by LPS” value is on record as “suppressed”, the “activity of p38 MAPK activated by LPS” value is recorded as “suppressed” and the “inflammation-related signaling pathway leading to p38 MAPK-MK2” value was “inhibited”. Besides, in data set [2], the “NF-KB expression and migration in the nucleus” value was “inhibited”; the “activity of the transcription factor NF-KB” value is “inhibited”. In data set [3], the “inflammatory response caused by DNBS” value is “significantly reduced”, the “production amount of CNIC-3 chemokine” value was “low”, the “body weight lost due to the DNBS treatment” value was “did not restore” and the “length of the large intestine (colon)” value was “no significant difference”. In addition, in data set [3], the ulcer scab result is given as “much smaller” and the “macrophage peroxidase (MPO) activity in colon” value is on record as “much lower”. For the same compound, in data set [4], the “inflammation and synovitis of joint tissues” value was “significantly reduced”; the “expression of HO-1 in the joints” value is reported as “increased”; the “expression of Nrf2 in the joints” value is on record as “increased”; the “length of the spleen” value is “reduced”. In addition, in data set [4], the “weight of the spleen” value is on record as “reduced”, the “swelling of the feet” value is “much smaller” and the “weight loss caused by rheumatism induced by collagen” value is reported as “did not restore”. For the same compound, in data set [5], the “activity of ALT enzyme in serum” value is given as “did not increase” and the “activity of AST enzyme in serum” value was “did not increase”.
